# Source: article PMC314469, “Protein Interaction Networks by Proteome Peptide Scanning” (PLoS Biology, 2004)
# System: Myo5 SH3 domain
# Assay: SPOT analysis of cellulose-bound peptides (WISE), Myo5 SH3 domain (Dataset S4)
# Assay type: binding, Saccharomyces cerevisiae
# Conditions: for The normalized value in BLU units: Myo5 SH3 domain
# [1] = SPOT analysis of membrane-synthesized peptides probed with Myo5 SH3 domain, normalized value
# [2] = SPOT analysis of cellulose-bound 14-mer yeast proteome peptides, normalized value, mean where the peptide was synthesized more than once
# [3] = SPOT analysis of cellulose-bound peptides probed with Myo5 SH3 domain, normalized value
# [4] = SPOT analysis of membrane-bound peptides, normalized value (see methods)
sequence,measurement,setting,value
FEYSKYRPLTPSSE,"The normalized value in BLU units (SPOT analysis, Myo5 SH3)",[1],143.0 BLU
FFFFHLSPSIPFWF,The normalized value in BLU units,[2],6490.2 BLU
FFNRYPNPYSPHVL,"The normalized value in BLU units (SPOT analysis, Myo5 SH3)",[3],136.7 BLU
FFPIMSLPVTPVKS,"The normalized value in BLU units (SPOT analysis, Myo5 SH3)",[3],122.3 BLU
FFQLMQSPSLPLLM,The normalized value in BLU units,[2],829.6 BLU
FFTIWFIPLVPVFW,"The normalized value in BLU units (SPOT analysis, Myo5 SH3)",[3],396.7 BLU
FFYRRDIPDVPITT,The normalized value in BLU units,[2],138.0 BLU
FGSNKNNPVPPELT,"The normalized value in BLU units (SPOT analysis, Myo5 SH3)",[1],171.5 BLU
FGTAKILPEEPSNT,"The normalized value in BLU units (SPOT analysis, Myo5 SH3)",[1],153.4 BLU
FHDPKFIPNKPYRQ,The normalized value in BLU units,[2],299.7 BLU
FHPEKLTPYTPMTG,"The normalized value in BLU units (SPOT analysis, Myo5 SH3)",[1],96.5 BLU
FIKNKAKPLIPIEL,The normalized value in BLU units,[4],656.3 BLU
FKVYRWNPDEPSAK,"The normalized value in BLU units (SPOT analysis, Myo5 SH3)",[1],99.0 BLU
FLALFSDPARPFLT,"The normalized value in BLU units (SPOT analysis, Myo5 SH3)",[3],451.5 BLU
FLHSKKIPEVPQTD,The normalized value in BLU units,[4],287.9 BLU
FLLKKMFPAPPLPT,"The normalized value in BLU units (SPOT analysis, Myo5 SH3)",[1],23725.0 BLU
FLPVFNLPSNPALF,"The normalized value in BLU units (SPOT analysis, Myo5 SH3)",[3],154.3 BLU
FLQDRVIPIFPHYP,"The normalized value in BLU units (SPOT analysis, Myo5 SH3)",[1],260.9 BLU
FLRTMAQPTDPKDQ,The normalized value in BLU units,[2],256.6 BLU
FLSRYPVPDLPIYL,The normalized value in BLU units,[2],1340.1 BLU
FLSYMSEPKYPSNE,The normalized value in BLU units,[2],141.6 BLU
FLTVYILPKNPFRV,The normalized value in BLU units,[2],1470.4 BLU
FLYPYDDPNAPIDE,"The normalized value in BLU units (SPOT analysis, Myo5 SH3)",[3],55.4 BLU
FNGDRLVPTLPTVS,The normalized value in BLU units,[4],160.6 BLU
FPFYLSFPFCPSFP,"The normalized value in BLU units (SPOT analysis, Myo5 SH3)",[3],759.9 BLU
FPKKMGPPQWPFST,The normalized value in BLU units,[2],279.0 BLU
FQDYRCSPWCPSRS,"The normalized value in BLU units (SPOT analysis, Myo5 SH3)",[1],263.5 BLU
FQPQRTAPKPPISA,"The normalized value in BLU units (SPOT analysis, Myo5 SH3)",[1],88304.9 BLU
FQYTKGRPLAPKGA,The normalized value in BLU units,[4],235.2 BLU
FRPHRLAPSAPATK,The normalized value in BLU units,[4],1405.4 BLU
FSKKKEAPEDPKNL,"The normalized value in BLU units (SPOT analysis, Myo5 SH3)",[1],148.1 BLU
FSTKKSKPIRPFVF,"The normalized value in BLU units (SPOT analysis, Myo5 SH3)",[1],378.5 BLU
FVFFKSLPDLPKPQ,"The normalized value in BLU units (SPOT analysis, Myo5 SH3)",[1],859.9 BLU
FVSPRRAPKPPSYP,The normalized value in BLU units,[4],1581.6 BLU
FWKIHLSPPLPSFK,"The normalized value in BLU units (SPOT analysis, Myo5 SH3)",[3],965.5 BLU
FYDFRSLPKVPTTQ,The normalized value in BLU units,[4],336.7 BLU
FYKEKAKPLEPILD,The normalized value in BLU units,[4],87.7 BLU
GAGGLGCPALPYLA,"The normalized value in BLU units (SPOT analysis, Myo5 SH3)",[3],110.6 BLU
GAPPLPVPNGPAVG,"The normalized value in BLU units (SPOT analysis, Myo5 SH3)",[3],222.0 BLU
GARFLPAPHRPEKY,The normalized value in BLU units,[2],152.9 BLU
GDEERFLPNRPHYE,"The normalized value in BLU units (SPOT analysis, Myo5 SH3)",[1],125.8 BLU
GDHPKGPPPPPPPD,"The normalized value in BLU units (SPOT analysis, Myo5 SH3)",[1],40130.9 BLU
GDHPKGPPPPPPPP,"The normalized value in BLU units (SPOT analysis, Myo5 SH3)",[1],20184.2 BLU
GEFFHCSPNIPHYA,The normalized value in BLU units,[2],271.2 BLU
GEIMFPAPPLPIAN,"The normalized value in BLU units (SPOT analysis, Myo5 SH3)",[3],2774.8 BLU
GEMVKLTPKNPFYK,"The normalized value in BLU units (SPOT analysis, Myo5 SH3)",[1],408.3 BLU
GENIKITPQKPFWF,The normalized value in BLU units,[4],115.0 BLU
GESHYKPPSTPKIN,"The normalized value in BLU units (SPOT analysis, Myo5 SH3)",[3],721.8 BLU
GETQWRIPYLPLDP,"The normalized value in BLU units (SPOT analysis, Myo5 SH3)",[3],106.2 BLU
GETRWRIPYLPLDP,"The normalized value in BLU units (SPOT analysis, Myo5 SH3)",[3],118.4 BLU
GEYDLIMPIYPYRL,The normalized value in BLU units,[2],242.0 BLU
GFDGYMQPIIPGKT,"The normalized value in BLU units (SPOT analysis, Myo5 SH3)",[3],158.4 BLU
GFLSKKVPNTPVVV,The normalized value in BLU units,[4],71.3 BLU
GFQDRSLPHFPKNS,The normalized value in BLU units,[4],178.5 BLU
GFVFFIAPHLPVDL,The normalized value in BLU units,[2],507.5 BLU
GHKKKNLPKFPKNK,"The normalized value in BLU units (SPOT analysis, Myo5 SH3)",[1],789.2 BLU
GIKVKRIPYSPKSI,The normalized value in BLU units,[4],390.6 BLU
GIMIKAKPSSPYTY,"The normalized value in BLU units (SPOT analysis, Myo5 SH3)",[1],235.9 BLU
GKDHRLAPNGPGMH,"The normalized value in BLU units (SPOT analysis, Myo5 SH3)",[1],217.5 BLU
GKMVKWGPLRPFLS,"The normalized value in BLU units (SPOT analysis, Myo5 SH3)",[1],644.7 BLU
GLDALNIPHKPKQL,"The normalized value in BLU units (SPOT analysis, Myo5 SH3)",[3],167.1 BLU
GLDLKWEPSTPQRK,The normalized value in BLU units,[4],164.4 BLU
GLHDYTSPASPKQT,"The normalized value in BLU units (SPOT analysis, Myo5 SH3)",[3],129.7 BLU
GLIAHQGPQFPVMG,The normalized value in BLU units,[2],238.5 BLU
GLIGMNDPPRPNVK,The normalized value in BLU units,[2],115.5 BLU
GLLLLFVPDSPYDP,The normalized value in BLU units,[2],21.6 BLU
GLLTYKGPKVPYQK,"The normalized value in BLU units (SPOT analysis, Myo5 SH3)",[3],150.1 BLU
GLMSKLGPNLPASI,"The normalized value in BLU units (SPOT analysis, Myo5 SH3)",[1],287.3 BLU
GLNLKWEPSTPQRN,The normalized value in BLU units,[4],104.8 BLU
GLRELFLPGMPGLM,The normalized value in BLU units,[2],159.7 BLU
GLRWYRSPIYPYLY,"The normalized value in BLU units (SPOT analysis, Myo5 SH3)",[3],468.1 BLU
GLVLRSTPVIPDMK,The normalized value in BLU units,[2],209.2 BLU
